PubChem BioAssay (NCI)
Several values for one entry are separate records, joined by “and”; a condition that tells them apart may be missing. Equal entries are not always repeated.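 Grown in 96-well plates, cells were treated for 48 hours with each compound at five concentrations. Insufficient inhibition: endpoint recorded as highest concentration tested. GI50 = concentration required for 50% inhibition of growth. TGI: total growth inhibition.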

Experiments:
Experiment in all cases: NCI-60 cell line screen, 48 h
[1] = tested on: A549 NSCLC
[2] = tested on: CCRF-CEM leukemia
[3] = tested on: DU-145 prostate
[4] = tested on: HS 578T breast
[5] = tested on: LOX IMVI melanoma
[6] = tested on: MOLT-4 leukemia
[7] = tested on: PC-3 prostate
[8] = tested on: RXF 393 renal
[9] = tested on: SN12C renal
[10] = tested on: SR leukemia

| SMILES | GI50 [1] [µM] | TGI [1] [µM] | GI50 [2] [µM] | TGI [2] | GI50 [3] [µM] | TGI [3] [µM] | GI50 [4] [µM] | TGI [4] | GI50 [5] [µM] | TGI [5] [µM] | GI50 [6] [µM] | TGI [6] | GI50 [7] [µM] | TGI [7] | GI50 [8] | TGI [8] | GI50 [9] [µM] | TGI [9] | GI50 [10] | TGI [10] |
| --- | --- | --- | --- | --- | --- | --- | --- | --- | --- | --- | --- | --- | --- | --- | --- | --- | --- | --- | --- | --- |
| CCOc1ccc2cc(-c3nn(CC4CCN(C)CC4)c4ncnc(N)c34)ccc2c1 | 17.9 | 40.2 | 16.8 | 55.2 µM | 28.4 | > 100 | 11.1 | 33.7 µM | 19.4 | 59 | 4.84 | 24.6 µM | 17 | 43.5 µM | 4.12 µM | 18.6 µM | 12 | 32.1 µM | 3.63 µM | 18 µM |
| C/C(=N\NC(=S)N1CCCC1)c1ccccn1 | < 0.01 | 10.5 | < 0.01 | 23.1 µM | 0.0428 | 14.8 | 0.198 | 20.5 µM | < 0.01 | 11.1 | < 0.0115 | 11.6 µM | < 0.01 | 16.7 µM | 0.188 µM | 7.14 µM | 0.0132 | 11.8 µM | < 0.01 µM | > 49.9 µM |
| Cc1cc(C)nc(NC(=O)COc2ccc(Cl)cc2)c1 |  | > 100 |  |  |  | > 100 |  | > 100 µM |  | > 100 |  | > 100 µM |  | > 100 µM |  | > 100 µM |  | > 100 µM |  | > 100 µM |
| CCOC(=O)C(Cc1cc(OC)c(CC(C(=O)OCC)C(=O)OCC)cc1OC)C(=O)OCC |  | > 100 |  | > 100 µM |  | > 100 |  | > 100 µM |  | > 100 |  | > 100 µM |  | > 100 µM |  | 97.7 µM |  | > 100 µM |  | > 100 µM |
| CC(C)(C)OC(=O)NCCCCCCCCCCCCn1c2c(c3ccccc3c1=O)C(=O)c1ccccc1-2 | > 100 | > 100 | 43.3 | > 100 µM | 91.6 | > 100 | 11.9 | 63.1 µM | > 100 | > 100 | 49.4 | > 100 µM | > 100 | > 100 µM | 17.8 µM | 49.2 µM | > 100 | > 100 µM | 35 µM | > 100 µM |
| CC(=O)c1nc(-c2ccc(C[C@@H](CNC(=O)CN(C)C)NC(=O)c3ccc(OC(C)C)c(Cl)c3)cc2)cn1C | 0.0518 | 19.1 | 0.0447 | 34.7 µM | 0.032 | 11.4 | 0.0615 | 21.3 µM | 0.16 | 16.5 | 0.0406 | 15 µM | 0.0652 | 19.6 µM | 0.0628 µM | 16.6 µM | 0.0579 | 17.1 µM | 0.0506 µM | 12.6 µM |
| CN(CCOc1ccc(NS(C)(=O)=O)cc1)CCc1ccc(NS(C)(=O)=O)cc1 | > 100 | > 100 | > 100 | > 100 µM | > 100 | > 100 | > 100 | > 100 µM | > 100 | > 100 | > 100 | > 100 µM | > 100 | > 100 µM | > 100 µM | > 100 µM | > 100 | > 100 µM | > 100 µM | > 100 µM |
| COC1CCC(OC)C(c2nc3sccn3c2/C=N/N=C(N)N)C1 (centres undefined) | 47 | > 100 | 24.8 | > 64.7 µM | 45.1 | > 80.2 | 24.6 | 68.6 µM | 28.5 | 67.4 | > 74.6 | > 100 µM | 25 | > 65.4 µM | 24.8 µM | > 82.9 µM | 22.4 | 56.3 µM | 0.0201 µM | 15 µM |
| CCOC(=O)/C=C/c1ccc([N+](=O)[O-])o1 | 25.3 | > 100 | 0.518 | 10.2 µM | 3.17 | 11.1 | 5.74 | 53.9 µM | 1.55 | 3.71 | 2.76 | 13 µM | 11.8 | 39.9 µM | 1.82 µM | 3.86 µM | 3.03 | 10.8 µM | 1.64 µM | 26.1 µM |
| CC(=O)/C(=N\N=C(N)N)c1ccccc1 |  | > 100 |  |  |  | > 100 |  | > 100 µM |  | > 100 |  | > 100 µM |  | > 100 µM |  | > 100 µM |  | > 100 µM |  | > 100 µM |
| CCOC1=C/C(=N\Nc2ccc([N+](=O)[O-])cc2)CCC1 |  | > 100 |  |  |  | > 100 |  | > 100 µM |  | > 100 |  | > 100 µM |  | > 100 µM |  | 63.1 µM |  | > 100 µM |  | > 100 µM |
| O=C(OCC1=CC(=O)c2ccccc2C1=O)c1ccccc1 | 2.41 | 6.24 | 6.73 | 35.4 µM | 1.83 | 3.6 | 14.3 | 51.7 µM | 5.69 | 21.5 |  |  | 14.1 | 38 µM | 13.6 µM | 26.5 µM | 15.1 | 28.5 µM | 3.51 µM | 30.8 µM |
| C=C(CN1CCN(c2ccccn2)CC1)c1ccc(C(=O)Nc2ccccc2N)cc1 | 2.4 | 37.3 |  |  | 2.52 | 18.5 | 1.11 | 6.28 µM |  |  |  |  | 3.78 | > 50 µM | 1.55 µM | 13 µM | 2.35 | > 50 µM | 5.33 µM | > 50 µM |
| CN1C2C=CC(=O)C1C(C#N)C2 (centres undefined) |  | > 100 |  | 82.7 µM and > 100 µM |  | > 100 |  | > 100 µM |  |  |  | > 100 µM |  | > 100 µM | 23.9 µM and 57.7 µM | 64.3 µM and > 100 µM |  | > 100 µM | 22.7 µM and 61.6 µM | 81 µM and > 100 µM |
| C[C@]12CCC3c4ccc(O)cc4CCC3C1CC[C@@H]2NC(=O)/C=C/c1ccc(O)c(O)c1 (some centres undefined) | 15.5 | 31.8 | 3.2 | 30 µM | 13.1 | 32.5 | 15.4 | > 100 µM | 3.86 | 17.8 | 3.34 | 24 µM | 3.94 | 40.5 µM |  |  | 13.4 | 34.2 µM | 7.26 µM | 42 µM |
| COc1ccc(-c2cn3ccnc3c(-c3ccc(Cl)cc3)n2)cc1 | 7.49 | 99.3 |  |  | 11.7 | > 100 | 3.83 | 48.2 µM | 7.95 | > 100 | 4.9 | > 100 µM | 14.5 | > 100 µM | 28.2 µM | > 100 µM | 10.4 | 46 µM | 1.71 µM | > 100 µM |
| COc1ccc(/C=C(\C#N)c2cc(OC)c(OC)c(OC)c2)cc1 | 0.0288 | > 75.2 | 0.0361 | > 43.5 µM |  |  | 0.0359 | > 100 µM | 0.0258 | > 100 | 0.0391 | 6.85 µM | 0.0308 | > 87.1 µM | < 0.0141 µM | > 90.7 µM | 0.0486 | > 100 µM | < 0.01 µM |  |
| CCCC(=O)Nc1cc(/C=C/C(=O)N2C[C@@H]3C[C@]34C2=CC(=O)c2[nH]cc(C)c24)n(C)c1 |  |  |  | 0.131 µM and 0.267 µM | 0.0252 |  | 0.143 | 1.96 µM and 0.55 µM | 0.0112 |  |  | 0.134 µM and 0.515 µM | 0.125 | 5.7 µM and 0.625 µM | 0.111 µM | 0.298 µM and 0.238 µM | 0.064 | 2.41 µM and 1.59 µM |  | 0.0709 µM |
| C=C(CN1CCc2ccccc2C1)c1ccc(CCCC(=O)Nc2ccccc2N)cc1 | 16.4 | 58.8 | 3.06 | > 100 µM | 11.3 | 30.4 | 14 | 43.4 µM | 9.15 | 21.7 | 1.28 | 15.3 µM | 10.5 | 30.3 µM | 17.1 µM | 35.7 µM | 13 | 28.4 µM |  |  |
| OC(Cc1cccc2ccccc12)CN1CCC(c2ccccc2)CC1 (centres undefined) |  | 29.9 |  | 62.6 µM |  | 31.9 |  | 32.4 µM |  | 29.5 |  |  |  | 30.5 µM |  | 23 µM |  | 30.6 µM |  | 27.4 µM |
| O=C(O)C(Cc1ccccc1)N1C(=O)/C(=C/C(Cl)=C/c2ccc([N+](=O)[O-])cc2)SC1=S (centres undefined) | 3.46 | > 100 | 2.92 | > 100 µM | 2.06 | 4.56 | 4.37 | > 100 µM | 1.64 | 3.26 | 3.14 | > 100 µM | 2.53 | 7.98 µM | 1.54 µM | 3.02 µM |  |  | 2.45 µM | > 100 µM |
| COc1ccc(C(=O)Cn2c(C(=O)c3ccc(Cl)cc3)nc(-c3ccccc3)c2-c2ccccc2)cc1 | 60 | > 100 |  |  | > 100 | > 100 | 44.1 | > 100 µM | > 100 | > 100 | > 100 | > 100 µM | > 100 | > 100 µM | 23.6 µM | > 100 µM | > 100 | > 100 µM | > 100 µM | > 100 µM |
